Experimental data: US20260000655A1, “PHARMACEUTICAL COMPOSITION FOR USE IN PREVENTION OR TREATMENT OF LIFESTYLE-RELATED DISEASE” (priority 2022, published 2026)

Legend:
[1] = system: adenosine monophosphate-activated protein kinase (AMPK); assay: Activation of AMPK (p-AMPK/AMPK, Western blotting) in adipocyte model 3T3-L1; format: cell-based, mouse; conditions: 3T3-L1 adipocytes; HPH-15 at 1/200th the concentration of metformin (2 mM); 24 hours
Excerpt: The tissues involved in glucose uptake and glucose metabolism are mainly the muscle, the liver, and the fat. Thus, using a cell model of each tissue, the relationship between HPH-15 and activation of adenosine monophosphate-activated protein kinase (AMPK) was examined. Note that AMPK is known as a therapeutic target for diabetes. AMPK acts as an energy sensor, and when it detects a decrease in ATP serving as an intracellular energy source, it suppresses the synthesis of glucose, fats, and proteins and produces ATP. Exercise therapy for diabetes is based on this mechanism. Further, AMPK has been drawing attention as a factor that improves insulin resistance.
As a muscle cell model to be used, rat myoblast cell line L6-GLUT4myc (myoblasts expressing myc-tagged GLUT4) was cultured in a minimal essential medium a-MEM (10% FBS) and differentiated into myotubes. Differentiation into myotubes was performed by culturing L6-GLUT4 cells in a-MEM (10% FBS) and then changing the medium to a-MEM (2% FBS), followed by culturing for 6 days. Human HepG2 cell line was used as a liver cell model. As an adipocyte model to be used, mouse 3T3-L1 preadipocyte cell line was differentiated into adipocytes. Differentiation into adipocytes was performed as follows. […]
Next, bands of AMPK and p-AMPK were quantified using ImageJ to determine a ratio of activated AMPK relative to AMPK (p-AMPK/AMPK).

[2] = system: AMPK; assay: Activation of p-AMPK in mouse tissue (Western blotting); format: in vivo
Protocol: High-fat diet-induced obesity model mice were prepared in the same manner as in Example 7. Then, HPH-15 (10 mg/kg or 100 mg/kg, […]) dissolved in olive oil or metformin (300 mg/kg, […]) was orally administered once a day for 28 days. Olive oil alone was administered as a control. After 28 days of administration of each, equal amounts (50 mg) of tissue pieces were collected from the liver, subcutaneous fat, and muscle tissues of the high-fat diet-induced obesity model mice, transferred to 1.5 mL Eppendorf tubes, and washed twice with PBS. After washing, the tissue pieces were transferred to BIOMASHER II, […] of RIPA buffer was added, and the tissue pieces were homogenized on ice. After homogenization, the tissue pieces were centrifuged (10,000 rpm, 4° C., 5 min) and the supernatant was obtained as a protein solution. The concentration of the proteins thus obtained was corrected based on the protein concentration measured by the BCA method using bicinchoninic acid (BCA), thereby preparing samples for Western blotting. Western blotting was performed in the same manner as in Example 1 described above, and the amount of p-AMPK/AMPK was calculated.

[3] = system: high-fat diet-induced obesity model mice; assay: H&E staining of mouse tissue; format: in vivo
Protocol: High-fat diet-induced obesity model mice were prepared in the same manner as in Example 7. Note that the high-fat diet-induced obesity model mice develop liver damage and are thus used as a liver disease model. Then, HPH-15 (10 mg/kg or 100 mg/kg, […]) dissolved in olive oil or metformin (300 mg/kg, […]) was orally administered once a day for 28 days. Olive oil alone was administered as a control. After administration of each for 28 days, the liver, epididymis, and muscle of the high-fat diet-induced obesity model mice were stained with H&E and observed using a microscope. The results of H&E staining of the liver are shown in FIG. 12A, the results of H&E staining of the epididymis are shown in FIG. 12B, and the results of H&E staining of the muscle are shown in FIG. 12C.

[4] = system: herpes; conditions: Non-Patent Literature 2; cited from earlier work
[5] = HPH-15 10 or 100 mg/kg orally 28 days

## CC(C)(C)SCCNC(=S)c1cccc(C(=S)NCCSC(C)(C)C)n1 [HPH-15]
[1]
  AMPK activation (p-AMPK/AMPK) compared to when metformin was used: approximately 170%
[2]; [5]
  p-AMPK/AMPK in the liver: increased
  p-AMPK/AMPK in the muscle: increased
  p-AMPK/AMPK in the subcutaneous fat: increased
[2]; HPH-15 10 or 100 mg/kg vs metformin 300 mg/kg, orally 28 days
  AMPK activation in the subcutaneous fat as compared to metformin: twice or more as compared to metformin
[3]; HPH-15 100 mg/kg orally 28 days
  visible fat in liver tissue and epididymal adipose tissue (H&E): almost no fat was visible
[3]; [5]
  cell area ratio in the epididymal adipose tissue (size of adipocytes, H&E): reducing the cell area ratio
  macrophage infiltration in epididymal adipose tissue (H&E): does not cause macrophage infiltration
[3]; HPH-15 10 or 100 mg/kg orally 28 days, compared to the control and metformin 300 mg/kg
  percentage of fat in the liver tissue (H&E): significantly reducing the percentage of fat in the liver tissue
[3]; orally once a day 28 days, FIG. 12C
  tissue changes or toxicity in the muscle (H&E): no tissue changes or toxicity was observed
[4]
  anti-herpes activity: has anti-herpes activity
